System: Jurkat cells
Assay: Effect of compounds on growth of human leukemic T-cell line Jurkat cells (Trypan Blue live cell count)
Format: cell-based
Settings: for IC50: Homo sapiens, growth of Jurkat cells, viable cell count; for cancer cell growth inhibiting effect compared with phytol: Jurkat cells, 24-72 hours
Experimental: Human leukemic T-cell line Jurkat cells were obtained from the RIKEN BioResource Research Center (Tsukuba-shi, Ibaraki Prefecture). The cells were cultured in RPMI1640 medium (Wako Pure Chemical Industries, Ltd., Osaka-shi, Osaka Prefecture) containing 10% fetal bovine serum (Thermo Fisher Scientifics, K.K., MA, USA), 100 U/mL penicillin and 100 μg/mL spletomycin (both Life Technologies, Carlsbad, CA, USA) at 37° C. in a 95% air-5% CO2 environment.
Jurkat cells were adjusted to 1×10^5 cells/mL and seeded in 24-well multi-plates (Thermo Fisher Scientifics K. K.) by 500 μL/well. After seeding, phytol, aminophytol, amidophytol, methylaminophytol, hexylaminophytol, and acetamidophytol were adjusted with distilled water to a final concentration of 10 μM, 25 μM, and 50 μM respectively, and then added. Note that no compound is added to a control. After adding respective compounds, the cells were stained with Tripan Blue (Life Technologies) after 24, 48, and 72 hours, and live cells were counted using a hemocytometer.
A horizontal axis represents culture time (hours) and a vertical axis represents the number of viable cells (×10^5 cells/mL). “Cont” in the figures represents the control, and “10 μM,” “25 μM,” and “50 μM” represent concentration. FIG. 1 is for phytol; FIG. 2 is for aminophytol; FIG. 3 is for amidophytol; FIG. 4 is for monomethylaminophytol; FIG. 5 is for monohexylaminophytol; and FIG. 6 is for acetamidophytol.

[1] = after 24 hours at a concentration of 25 μM

| IC50 [µM] | SMILES | cancer cell growth inhibiting effect compared with phytol (10, 25, 50 μM) | viable cells [1] | viable cells (at a concentration of 25 μM) | viable cells (at a concentration of 50 μM) | growth of Jurkat cells (cancerous cells) (10, 25, 50 μM, 24, 48, 72 hours, concentration-dependence observed) | viable cells (after 72 hours at a concentration of 50 μM) |
| --- | --- | --- | --- | --- | --- | --- | --- |
| 8.5 | CCCCCCNC/C=C(\C)CCC[C@H](C)CCC[C@H](C)CCCC(C)C (racemic) [monohexylaminophytol, (E)-N-hexyl-3,7,11,15-tetramethylhexadec-2-en-1-amine] | more effect than phytol | few cells survived | – | – | – | – |
| 9.6 | C/C(=C\C(N)=O)CCC[C@H](C)CCC[C@H](C)CCCC(C)C (racemic) [amidophytol, (E)-3,7,11,15-tetramethylhexadec-2-enamide] | more effect than phytol | few cells survived | – | – | – | – |
| 21.2 | CC(=O)NC/C=C(\C)CCC[C@H](C)CCC[C@H](C)CCCC(C)C (racemic) [acetamidophytol, (E)-N-(3,7,11,15-tetramethylhexadec-2-en-1-yl)acetamide] | more effect than phytol | – | viable cells could still be identified | few cells survived | – | – |

Continued, molecule first:

| SMILES | IC50 [µM] | cancer cell growth inhibiting effect compared with phytol (10, 25, 50 μM) | viable cells [1] | viable cells (at a concentration of 25 μM) | viable cells (at a concentration of 50 μM) | growth of Jurkat cells (cancerous cells) (10, 25, 50 μM, 24, 48, 72 hours, concentration-dependence observed) | viable cells (after 72 hours at a concentration of 50 μM) |
| --- | --- | --- | --- | --- | --- | --- | --- |
| CNC/C=C(\C)CCC[C@H](C)CCC[C@H](C)CCCC(C)C (racemic) [monomethylaminophytol, (E)-N,3,7,11,15-pentamethylhexadec-2-en-1-amine] | 6.6 | more effect than phytol | few cells survived | – | – | – | – |
| C/C(=C\CN)CCC[C@H](C)CCC[C@H](C)CCCC(C)C (racemic) [aminophytol, (E)-3,7,11,15-tetramethylhexadec-2-en-1-amine] | 3.8 | more effect than phytol | few cells survived | – | – | – | – |
| C/C(=C\CO)CCC[C@H](C)CCC[C@H](C)CCCC(C)C [phytol, reference compound] | 29.8 | – | – | – | – | inhibited the growth | viable cells could still be identified |

Reference: patent US12338198B2, “Cancer cell growth inhibiting composition and processed food” (HAGIHARA FARM PRODUCTION INSTITUTE CO., LTD., priority 2019, dated 2025)
